# Source: patent EP0378671B1, “INSULINOMIMETIC AND INSULIN RECEPTOR BINDING SITE PEPTIDES” (CITY OF HOPE, priority 1988, dated 1997)
# Tested on: isolated rat adipocytes
# Assay: Lipogenesis assay: incorporation of 3-[3H] glucose into lipids
# Assay type: cell-based
# Settings: 2 hours at 37°C, compared with insulin and basal (Figure 10)
# Procedure: The lipogenesis assay was conducted according to Smal, et al., J.Biol.Chem. 262:11071-11079 (1987). Dissected epididymal and retroperitoneal fat pads were digested under vigorous shaking at 37°C for 30 min with collagenase (1.0 mg/ml) in Krebs-Ringer-Heps (KRH) buffer, pH 7.4, 35 mg/ml dialyzed bovine serum albumin (BSA), 0.27 mM glucose. After filtration on cheesecloth and 4 washes in KRH with 10 mg/ml BSA, the adipocytes were preincubated for 4 hours at 37°C in the same buffer.
# The lipogenesis assay was performed in triplicate in 6 ml polyethylene vials by adding successively 400 µl of adipocyte suspension (80 X l0^3 cells/ml), 50 µl of KRH buffer pH 7.4 (1% BSA, 0.27 mM glucose) without hormone (basal lipogenesis) or with insulin or receptor-derived peptides at the indicated concentrations, and 50 µl D-[3-^3H]-glucose in a total volume of 0.5 ml. The vials were incubated 2 hours at 37°C under gentle shaking. […]
substance,measurement,setting,value
"insulin receptor sequence 81-91: peptide with insulin receptor sequence 81-91 (LIMITDYLLLF; UniProt P06213 81-91, looked up, fragment)",stimulation of lipogenesis,,totally inactive
same,stimulation of lipogenesis,listed as insulin receptor sequence 81 to 91,not stimulated above basal
